Reference: a melting point compilation (Tetko et al.; mined from patent text by program, amines drawn as free bases though some values may be those of a salt)

melting point [°C]	Compound
128 to 129	COC(=O)NC(Cc1c[nH]c2ccccc12)C(=O)OCc1cc(C)cc(C)c1 (stereo unspecified)
235 to 240	O=C(O)c1ccc2ccccn2c1=O
46 to 48	C=CCc1cc(C(C)=O)c(O)cc1OCCCCCCCC#N
137	Clc1ccc(NN=Cc2cccs2)cc1
288 to 289	CC(C)(C)c1ccc(C(=O)Nc2cn3cc(-c4cccnc4)ccc3n2)cc1
267 to 269	CC(=O)Nc1nc(NC(C)=O)nc(NC2CC2)n1
246 to 248	C#Cc1ccc(-c2[nH]c(=O)c3cc(OC)ccc3c2[N+](=O)[O-])cc1
162 to 164	CC(C)c1cc(O)cc(C(C)C)c1NC(=O)CN1CCN(CCSc2nc3ccccc3o2)CC1
146 to 148	CSCc1cn(C)c2c(Cl)cccc2c1=O
146 to 148	COc1ccc(/C=C/C(=O)OCC(=O)COC(=O)/C=C/c2ccc(OC)cc2)cc1
74 to 75	CC(=O)C1CC2CCC1(COC(=O)Oc1ccccc1)CC2 (stereo unspecified)
253 to 255	O=C1CCC(N2C(=O)c3ccc(CNC(=O)c4ccc(Cl)c(Cl)c4)cc3C2=O)C(=O)N1 (stereo unspecified)
172 to 173	CC(=O)OCc1c(Br)cccc1N1Cc2cc(C(C)(C)C)sc2C1=O
66 to 68	CCCCSCC(=O)c1cc2c(cc1Cl)n(C)c(=O)n2C
151	Cc1cccc2sc(-c3ccccn3)nc(=O)c12
168 to 170	CCNC(=S)NS(=O)(=O)c1cc(CCNC(=O)c2cc(Cl)ccc2OC)ccc1-c1ccccc1
88 to 90	CCCCN1C(C)=C(C(=O)OCC)C(c2cc([N+](=O)[O-])ccc2OCC(=O)OCC)C(C(=O)OCC)=C1C
129 to 130	O=C(Nc1ccccc1)c1ccc(OC(F)(F)F)c(Nc2cccc(C(F)(F)F)c2)c1
150 to 155	CC(=O)OC1CCC2C3C(Sc4ccc(O)cc4)C(=O)c4cc(O)ccc4C3CCC12C (stereo unspecified)
269 to 272	COc1cc(C(=O)O)ccc1Cn1nc(O)c2ccc(NC(=O)CC3CCCC3)cc21
56 to 58	N#CCC(=O)c1ccccc1Cl
256 to 259	CC1NC(=O)NN=C1c1ccc(O)cc1 (stereo unspecified)
120 to 122	CCCCCCCCCCCCCCCC(=O)Nc1ccc(O)c(C(C)=O)c1

melting point [°C]	Compound
210 to 211	O=C(N[C@H](Cc1ccc(C(F)(F)F)cc1)[C@@H](O)c1ccc(F)cc1)c1ccc(F)c2ccccc12 (racemic)
115 to 116	OC(c1ccc2c(c1)CCCN2)(C(F)(F)F)C(F)(F)F
228 to 229	COc1cc2c(c(Cl)c1Cl)SC(c1ccccc1)C2=O (stereo unspecified)
> 250	COc1cc(C#N)ccc1-c1nc2cc(Cl)c(Cl)cc2[nH]1
96	O=C(O)Cc1ccc(OCCNC(=O)C2Cc3ccccc3N2S(=O)(=O)c2ccc(-c3cccc(C(F)(F)F)c3)cc2)c(Cl)c1 (stereo unspecified)
44 to 46	CCOc1cc(I)cc(OCC)c1OCC
87 to 90	O=C(Nc1nc(OCc2ccc(F)cc2)ncc1F)c1snc(Cl)c1Cl
142 to 144	C[C@@H]1C[C@H](C)CN(C(=O)[C@@H]2Cc3cc(Br)ccc3N2c2ncccn2)C1
141 to 142	NC(=O)C1CCN(CCO)CC1
120 to 130	O=C(O)CCCSc1ncnc2ncn(Cc3ccc4c(c3)Nc3nccnc3S4)c12
125 to 129	CCOC(=O)c1cccc(NC(=O)C(COS(C)(=O)=O)NS(=O)(=O)c2ccc(Cl)cc2)c1 (racemic)
143	Cc1cc(OCCCCl)c(C)c(C)c1OCCCCl
170	Cc1cc2nc(Cl)c3cnccc3n2n1
133	c1ccc2c(c1)OCC(CN1CCC(CNc3nc4ccccc4s3)CC1)O2 (stereo unspecified)
227 to 229	Cc1cc2c(-c3ccccc3C)c(NC(=O)Nc3ccc(F)cc3F)c(=O)n(C)c2cc1Cl
180 to 181	Cc1cc(C2CCN(S(=O)(=O)C3(C(=O)NO)CCN(C(=O)OC(C)(C)C)CC3)CC2)ccc1-c1cccc(OCCO)n1
139 to 141	Cc1ccc(C)n1CCNC(N)=O
84 to 85	O=C(ON1CCC(c2nsc3ccccc23)CC1)c1ccccc1
223 to 225	COc1ccc(CNc2cc(Cn3c(Oc4cc(C)cc(C)c4)c(C(C)C)c(=O)[nH]c3=O)cc(Cl)n2)cc1
127 to 128	CCc1cc(C(C)O)nn1-c1ccc([N+](=O)[O-])cc1 (stereo unspecified)
213 to 214	CCc1nc2c(N)nc3cc(Oc4ccc(C(=O)OC)cn4)ccc3c2s1
228 to 230	COCCN1Cc2cc(C(=O)O)ccc2N(C)C(CC(=O)O)C1=O (stereo unspecified)
62.9 to 63.7	CN(C(=O)C1(CCCCCCCCCCCCC2(C(=O)O)CC2)CC1)S(C)(=O)=O

melting point [°C]	Compound
79 to 80	CC(C)(C#N)c1ccc(C(=O)CCCCl)cc1
111 to 113	C=C(OCC)c1c(C)nc(C)nc1NCc1ccc(Br)cc1
98 to 99	CCOC(=O)C(C)(NC(=O)CNC=O)C(=O)OCC
136 to 138	Cc1c(C)c2c(c(C)c1N)CC(C)(CN1CCN(C(=O)c3ccc(Cl)cc3)CC1)O2 (stereo unspecified)
> 200	CC(C)(C)N(NC(=O)c1ccccc1)C(=O)c1cccs1
52 to 54	O=[N+]([O-])c1ccc(F)cc1OCc1ccccc1
136 to 144	CN(C)CC(C)(C)Oc1ccc(Nc2cc(-c3cccc(-n4ncc5cc(C(C)(C)C)cc(F)c5c4=O)c3CO)nn(C)c2=O)nc1
164 to 165	O=c1oc(-c2snnc2C2CC2)nc2ccccc12
151	Cc1ccccc1-c1ccc(O)c(C(=O)O)c1
190 to 192	O=C(O)C1=Cc2cc(Cl)cc(C#Cc3ccccc3)c2OC1C(F)(F)F (stereo unspecified)
138 to 140	O=CN(O)C(Cc1cccc(CC(=O)O)c1)CS(=O)(=O)c1ccc(Oc2ccc(OC(F)(F)F)cc2)cc1 (stereo unspecified)
80 to 81	COC(=O)CCCCC1C(C(=O)OC)=C(C)NC(C)=C1C(=O)OC
150 to 152	CC(C)(C)OC(=O)NC1CCN(C(=O)C2CCN(C(=O)OCc3ccccc3)CC2)CC1
107 to 108	CC(=O)c1ccc(OCc2ccccc2)cc1O
50 to 51	CCCCCCCCCCCCn1nnnc1Cc1ccccc1
160 to 164	O=C(Nc1ccc2cn[nH]c2c1)C(=O)N1CCC(Cc2ccccc2)CC1
156	CS(=O)(=O)c1cc(C(F)(F)F)ccc1C(=O)O
96 to 97	Cc1sc(S(C)=O)nc1-c1ccccc1 (stereo unspecified)
201 to 202	Cc1c(C)c2c(c(C)c1NC(=O)CC(C)(C)C)C(c1ccc(Br)cc1)C(C)(C)O2 (stereo unspecified)
121 to 122	O=C(CCC(=O)N1CCC(c2ccc(Cl)cc2)CC1)c1ccc2c(c1)CNCC2
130 to 131	CCOc1cccnc1CSCCNC(=C[N+](=O)[O-])NC
149 to 152	CCOC(=O)c1cnc2ccc(Cl)nn2c1=O
244 to 248	Nc1nc2ccccc2c2c1nc(CO)n2CC1(O)CCCCC1

Compound	melting point [°C]
CC(N)Cc1cccc(N)c1 (stereo unspecified)	78 to 79
CC1Cc2ccc(Cl)cc2C(c2ccc(N)cc2)=NN1C(=O)C(F)(F)F (stereo unspecified)	165 to 167
